Experiments:
mTOR kinase = biological target: T1, mTOR kinase (Homo sapiens, UniProt P42345); assay: mTOR kinase TR-FRET assay; assay type: biochemical; settings: read-out: mTO R
T1 construct: purchased Millipore, USA
Method: Compound inhibition for mTOR kinase was determined in a homogeneous TR-FRET assay using the Lance® ULight-p70 S6K (Thr 389) peptide (obtained from Perkin-Elmer). The ULight™-labeled synthetic peptide contains the amino acid residues surrounding Thr389 of human p70 S6K. The ULight-p70 S6K peptide is phosphorylated at Thr389 by mTOR. Phosphorylation motif: LGFTYVAP as substrate.
The compound dilution was carried out in 100% DMSO followed by a buffer dilution. The reaction buffer was HEPES (50 mM pH 7.5), EGTA (1 mM), MnCl2 (3 mM). Test compounds at various concentrations were pre-incubated with mTOR (Millipore, USA; 5 ng) for 60 min, and then the Lance® ULight-p70 S6K (Thr 389) peptide (50 nM) was added along with ATP (20 μM). After incubating the reaction mixture for 60 min at room temperature, the kinase reaction was terminated by the addition of EDTA (10 mM) followed by the addition of detection mix, i.e., 1 nM Eu-labeled anti-phospho-substrate antibody (Perkin Elmer, USA). The fluorescence emission at […] was measured upon excitation at 340 nm. IC50 values were subsequently determined using a sigmoidal dose-response curve (variable slope) in GraphPad Prism® 5 software.
Compounds of formula (I) caused inhibition of mTOR kinase activity as determined by this assay.

[1] = biological target: T2, PI3Kα (wild-type), P110/P85α (Homo sapiens, UniProt P42336); assay: PI3 Kinase TR-FRET assay, PI3Kα (wild-type); assay type: biochemical
T2 construct: made in house; host or cells: SF9 insect cells
T2 sequence (P42336 whole entry): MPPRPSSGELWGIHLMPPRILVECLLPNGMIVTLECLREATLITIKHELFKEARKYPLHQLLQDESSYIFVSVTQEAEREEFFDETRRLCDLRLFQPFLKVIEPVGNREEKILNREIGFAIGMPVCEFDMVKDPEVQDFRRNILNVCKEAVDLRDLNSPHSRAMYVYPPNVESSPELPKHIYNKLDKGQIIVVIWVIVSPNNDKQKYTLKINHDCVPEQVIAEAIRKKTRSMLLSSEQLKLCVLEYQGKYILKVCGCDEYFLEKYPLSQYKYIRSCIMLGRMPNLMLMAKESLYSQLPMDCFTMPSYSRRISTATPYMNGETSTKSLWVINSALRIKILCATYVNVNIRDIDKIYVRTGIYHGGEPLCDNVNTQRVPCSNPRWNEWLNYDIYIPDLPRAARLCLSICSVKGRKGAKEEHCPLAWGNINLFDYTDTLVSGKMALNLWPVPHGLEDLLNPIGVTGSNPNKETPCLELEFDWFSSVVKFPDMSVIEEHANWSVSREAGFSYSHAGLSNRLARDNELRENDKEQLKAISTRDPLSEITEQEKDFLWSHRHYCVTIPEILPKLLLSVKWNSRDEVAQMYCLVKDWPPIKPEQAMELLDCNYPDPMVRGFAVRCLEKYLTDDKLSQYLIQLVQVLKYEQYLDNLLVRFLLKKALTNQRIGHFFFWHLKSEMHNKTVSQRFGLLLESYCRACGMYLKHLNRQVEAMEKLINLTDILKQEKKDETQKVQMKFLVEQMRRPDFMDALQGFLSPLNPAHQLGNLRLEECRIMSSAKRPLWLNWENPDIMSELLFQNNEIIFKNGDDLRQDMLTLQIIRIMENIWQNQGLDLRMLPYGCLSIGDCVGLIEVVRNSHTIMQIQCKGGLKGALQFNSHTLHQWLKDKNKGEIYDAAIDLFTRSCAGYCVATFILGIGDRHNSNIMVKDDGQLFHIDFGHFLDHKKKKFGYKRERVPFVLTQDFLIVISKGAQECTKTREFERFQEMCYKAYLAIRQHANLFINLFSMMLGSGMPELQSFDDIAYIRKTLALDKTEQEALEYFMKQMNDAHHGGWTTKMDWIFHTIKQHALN
T2 sequence (P27986 whole entry partner): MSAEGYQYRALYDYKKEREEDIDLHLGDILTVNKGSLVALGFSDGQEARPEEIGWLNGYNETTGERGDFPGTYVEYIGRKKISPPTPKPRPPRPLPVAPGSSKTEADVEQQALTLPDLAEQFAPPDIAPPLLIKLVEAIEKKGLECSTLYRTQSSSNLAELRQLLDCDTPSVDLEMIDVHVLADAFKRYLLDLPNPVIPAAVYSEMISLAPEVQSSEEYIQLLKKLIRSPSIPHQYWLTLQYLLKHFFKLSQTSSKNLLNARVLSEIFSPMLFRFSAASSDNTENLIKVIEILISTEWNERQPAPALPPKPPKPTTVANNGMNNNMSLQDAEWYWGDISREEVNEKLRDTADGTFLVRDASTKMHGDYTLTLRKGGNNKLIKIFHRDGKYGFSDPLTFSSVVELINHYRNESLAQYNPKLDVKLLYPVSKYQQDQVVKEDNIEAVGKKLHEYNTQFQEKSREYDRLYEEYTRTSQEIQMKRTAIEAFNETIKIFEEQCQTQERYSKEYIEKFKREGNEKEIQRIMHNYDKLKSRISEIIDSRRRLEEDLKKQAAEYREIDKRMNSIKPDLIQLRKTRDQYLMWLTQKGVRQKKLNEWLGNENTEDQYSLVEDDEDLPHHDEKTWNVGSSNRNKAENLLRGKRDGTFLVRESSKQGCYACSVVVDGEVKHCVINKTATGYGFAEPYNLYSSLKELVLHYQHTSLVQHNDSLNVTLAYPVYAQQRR
Method: The ability of compounds of the invention to inhibit PI3K activity was determined in a homogeneous TR-FRET assay using a PI3K assay kit (Millipore, USA; cat #33-016) according to manufacturer's instructions. PI3-Kinases (isoforms α, β, γ and δ) catalyze the phosphorylation of phosphatidylinositol, PIP2 to PIP3 in the presence of ATP and Mg^2+. The PIP3 product is detected by displacement of biotin-PIP3 from an energy transfer complex consisting of Europium labeled anti-GST monoclonal antibody, a GST-tagged PH domain, biotinylated PIP3 and Streptavidin-APC. Excitation of Europium in the complex results in an energy transfer to the APC and a fluorescence emission at 665 nm. The PIP3 product displaces biotin-PIP3 from the complex resulting in a loss of energy transfer and thus a decrease in signal.
To test for the ability of compounds to inhibit the activity of PI3Kα (wild-type), exemplary compounds of formula (I) were dissolved in DMSO and directly distributed into 384-well plates at a volume of 0.5 μL. 14.5 μL of P110/P85α/PIP2 mixture in buffer (obtained from the Millipore kit) containing MgCl2 (40 mM) and DTT (5 mM) was added to compound wells and incubated for 60 min at room temperature. P110/P85α was expressed in SF9 insect cells and purified nickel column extraction. Five ng of wild-type P110/P85α was used in the assay. The kinase reaction was started by the addition of ATP. The assay concentrations of both PIP2 and ATP were 10 μM. The reaction mixture was incubated for 30 min at room temperature and was terminated by the addition of stop mix and detection mix. Fluorescence was measured at 615 and 665 nm upon excitation at 340 nm in a Victor™ V5 fluorometer (Perkin Elmer, USA). The fluorescence emission ratio at 665 to 615 nm, proportional to the kinase activity, was plotted against the compound concentration to generate dose-response curves and IC50 values were determined using GraphPad Prism® 5 software.

## Cc1noc(C)c1-c1ccc2c(N3CCOCC3)nc(-c3ccc(NC(=O)Nc4ccc(C(=O)N5CCC(N(C)C)C5)cc4)c(F)c3)nc2c1 (stereo in doubt) [Example 221, (S)-1-(4-(3-(dimethylamino)pyrrolidine-1-carbonyl)phenyl)-3-(4-(7-(3,5-dimethylisoxazol-4-yl)-4-morpholino-quinazolin-2-yl)-2-fluorophenyl)urea]
mTOR kinase
  IC50: 50 to 200 nM
[1]
  IC50: 50 to 200 nM

## CN(C)CCNC(=O)c1ccc2c(N3CCOCC3)nc(-c3ccc(NC(=O)Nc4ccc(C(=O)N(C)C)cc4)cc3)nc2c1 [Example 7, 2-[4-{3-(4-Dimethycarbamoyl-phenyl)-Ureido]-phenyl}-4-morpholin-4-yl-quinazoline-7-carboxylic acid (2-dimethylamino-ethyl)-amide]
mTOR kinase
  IC50: < 50 nM
[1]
  IC50: 50 to 200 nM

## Cc1ccc(-c2ccc3c(N4CCOCC4)nc(-c4ccc(NC(=O)Nc5ccc(C(=O)N(C)C)cc5)c(F)c4)nc3c2)o1 [Example 8, 4-(3-{2-Fluoro-4-[7-(5-methyl-furan-2-yl)-4-morpholin-4-yl-quinazolin-2-yl]-phenyl}ureido)dimethyl-benzamide]
mTOR kinase
  IC50: 50 to 200 nM
[1]
  IC50: 201 to 10000 nM

## CN(C)C(=O)c1ccc(NC(=O)Nc2ccc(-c3nc(N4CCOCC4)c4ccc(-c5ccc(C(=O)O)o5)cc4n3)cc2)cc1 [Example 10, 5-(2-(4-(3-(4-(dimethylcarbamoyl)phenyl)ureido)phenyl)-4-morpholino-quinazolin-7-yl)furan-2-carboxylic acid]
mTOR kinase
  IC50: < 50 nM
[1]
  IC50: < 50 nM

## CN1CCN(C(=O)c2ccc(-c3ccc4c(N5CCOCC5)nc(-c5ccc(NC(=O)Nc6ccc(C(=O)N(C)C)cc6)cc5)nc4c3)o2)CC1 [Example 11, N,N-dimethyl-4-(3-(4-(7-(5-(4-methylpiperazine-1-carbonyl)furan-2-yl)-4-morpholino-quinazolin-2-yl)phenyl)ureido)-benzamide]
mTOR kinase
  IC50: < 50 nM
[1]
  IC50: < 50 nM

## CN(C)C(=O)c1ccc(NC(=O)Nc2ccc(-c3nc(N4CCOCC4)c4ccc(-c5ccc(C#N)o5)cc4n3)c(F)c2)cc1 [Example 12, 4-(3-(4-(7-(5-cyanofuran-2-yl)-4-morpholino-quinazolin-2-yl)-3-fluorophenyl)ureido)-N,N-dimethyl-benzamide]
mTOR kinase
  IC50: < 50 nM
[1]
  IC50: < 50 nM

## CC(=O)c1ccc(-c2ccc3c(N4CCOCC4)nc(-c4ccc(NC(=O)Nc5ccc(C(=O)N(C)C)c(F)c5)cc4)nc3c2)o1 [Example 13, 4-(3-(4-(7-(5-acetylfuran-2-yl)-4-morpholino-quinazolin-2-yl)phenyl)ureido)-2-fluoro-N,N-dimethyl-benzamide]
mTOR kinase
  IC50: < 50 nM
[1]
  IC50: < 50 nM

## CN(C)C(=O)c1ccc(NC(=O)Nc2ccc(-c3nc(N4CCOCC4)c4ncc(-c5cnn(C)c5)cc4n3)c(F)c2F)cc1 [Example 14, 4-(3-(2,3-difluoro-4-(7-(1-methyl-1H-pyrazol-4-yl)-4-morpholino-pyrido[3,2-d]pyrimidin-2-yl)phenyl)ureido)-N,N-dimethyl-benzamide]
mTOR kinase
  IC50: < 50 nM
[1]
  IC50: < 50 nM

## CC(O)c1ccc(-c2cnc3c(N4CCOCC4)nc(-c4ccc(NC(=O)Nc5ccc(C(=O)N(C)C)cc5)c(F)c4)nc3c2)o1 (stereo not drawn) [Example 15, 4-(3-(2-fluoro-4-(7-(5-(1-hydroxyethyl)furan-2-yl)-4-morpholino-pyrido[3,2-d]pyrimidin-2-yl)phenyl)ureido)-N,N-dimethyl-benzamide]
mTOR kinase
  IC50: < 50 nM
[1]
  IC50: < 50 nM

## Cc1ccc(-c2ccc3c(N4CCOCC4)nc(-c4ccc(NC(=O)Nc5ccc(N6CCCC6=O)cc5)cc4)nc3c2)o1 [Example 18, 1-(4-(7-(5-methylfuran-2-yl)-4-morpholino-quinazolin-2-yl)phenyl)-3-(4-(2-oxopyrrolidin-1-yl)phenyl)urea]
mTOR kinase
  IC50: < 50 nM
[1]
  IC50: 201 to 10000 nM

## O=C(Nc1ccc(-c2nc(N3CCOCC3)c3ccc(-c4cccnc4F)cc3n2)cc1)Nc1ccc(N2CCCC2=O)cc1 [Example 292, 1-(4-(7-(2-fluoropyridin-3-yl)-4-morpholinoquinazolin-2-yl)phenyl)-3-(4-(2-oxopyrrolidin-1-yl)phenyl)urea]
mTOR kinase
  IC50: < 50 nM

Reference: patent publication US9115092B2, “Substituted quinazoline and pyrido-pyrimidine derivatives” (Asana Biosciences, LLC, priority 2010, dated 2015)
